Test results from patent US20110136819A1, “6-THIOXOPYRIDAZINE DERIVATIVES” (MERCK PATENT GESELLSCHAFT MIT BESCHRÄNKTER HAFTUNG, priority 2007, published 2011).
Counter-ions that a name gives are not always drawn.

What follows are molecules tested against T1, Met kinase (Homo sapiens, UniProt P08581) (assay: Met kinase inhibition (enzyme assay), flashplate method). Conditions: 33P-ATP, substrate pAGLT, 3 hrs at room temperature.
T1 construct: 6His (N); purchased Upstate 14-526; host or cells: Sf21 insect cells (S. frugiperda), baculovirus
T1 sequence (P08581 25-1390): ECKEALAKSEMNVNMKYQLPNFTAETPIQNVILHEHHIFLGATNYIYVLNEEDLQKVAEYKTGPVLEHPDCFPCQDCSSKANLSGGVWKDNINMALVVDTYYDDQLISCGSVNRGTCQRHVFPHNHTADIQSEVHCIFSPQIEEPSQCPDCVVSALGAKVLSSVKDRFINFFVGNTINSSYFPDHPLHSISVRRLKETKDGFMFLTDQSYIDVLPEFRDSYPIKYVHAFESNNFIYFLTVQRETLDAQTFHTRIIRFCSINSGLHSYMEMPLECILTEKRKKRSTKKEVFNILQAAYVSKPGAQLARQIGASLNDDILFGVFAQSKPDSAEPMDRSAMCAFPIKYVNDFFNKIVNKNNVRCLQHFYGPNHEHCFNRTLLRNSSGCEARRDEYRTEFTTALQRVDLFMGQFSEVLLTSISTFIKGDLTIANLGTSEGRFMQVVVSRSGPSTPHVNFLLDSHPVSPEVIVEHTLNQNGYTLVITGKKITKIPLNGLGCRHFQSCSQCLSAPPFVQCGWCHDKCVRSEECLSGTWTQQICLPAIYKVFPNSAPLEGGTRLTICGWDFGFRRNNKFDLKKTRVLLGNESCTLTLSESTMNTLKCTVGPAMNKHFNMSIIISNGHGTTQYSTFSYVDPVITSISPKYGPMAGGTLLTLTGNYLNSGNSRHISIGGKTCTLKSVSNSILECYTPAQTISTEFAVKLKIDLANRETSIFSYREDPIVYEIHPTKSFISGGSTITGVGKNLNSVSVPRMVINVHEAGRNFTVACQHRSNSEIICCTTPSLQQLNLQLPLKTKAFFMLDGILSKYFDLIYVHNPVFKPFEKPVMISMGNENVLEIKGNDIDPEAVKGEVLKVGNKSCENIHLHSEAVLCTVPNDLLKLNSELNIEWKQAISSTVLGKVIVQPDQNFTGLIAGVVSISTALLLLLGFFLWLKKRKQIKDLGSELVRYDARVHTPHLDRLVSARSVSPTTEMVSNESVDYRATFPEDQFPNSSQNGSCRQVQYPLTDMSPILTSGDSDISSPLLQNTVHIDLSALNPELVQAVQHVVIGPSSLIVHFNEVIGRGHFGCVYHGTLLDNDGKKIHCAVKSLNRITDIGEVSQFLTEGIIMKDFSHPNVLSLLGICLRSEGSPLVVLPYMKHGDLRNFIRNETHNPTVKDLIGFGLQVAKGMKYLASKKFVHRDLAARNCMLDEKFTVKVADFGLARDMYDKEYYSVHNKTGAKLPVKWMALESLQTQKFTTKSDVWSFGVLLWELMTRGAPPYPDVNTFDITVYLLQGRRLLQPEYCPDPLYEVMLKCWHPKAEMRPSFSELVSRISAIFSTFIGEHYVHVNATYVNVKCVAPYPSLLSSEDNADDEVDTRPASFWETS
Assay type: biochemical
Source text: According to the manufacturer's data (Met, active, upstate, catalogue no. 14-526), Met kinase is expressed for the purposes of protein production in insect cells (Sf21; S. frugiperda) and subsequent affinity-chromatographic purification as “N-terminal 6His-tagged” recombinant human protein in a baculovirus expression vector.
The test plates used are 96-well Flashplate® microtitre plates from Perkin Elmer (Cat. No. SMP200). The components of the kinase reaction described below are pipetted into the assay plate. The Met kinase and the substrate poly Ala-Glu-Lys-Tyr, (pAGLT, 6:2:5:1), are incubated for 3 hrs at room temperature with radioactively labelled ^33P-ATP in the presence and absence of test substances in a total volume of 100 μl. The reaction is terminated using 150 μl of a 60 mM EDTA solution. After incubation for a further 30 min at room temperature, the supernatants are filtered off with suction, and the wells are washed three times with 200 μl of 0.9% NaCl solution each time. The measurement of the bound radioactivity is carried out by means of a scintillation measuring instrument (Topcount NXT, Perkin-Elmer).
The full value used is the inhibitor-free kinase reaction. This should be approximately in the range 6000-9000 cpm. The pharmacological zero value used is staurosporin in a final concentration of 0.1 mM. The inhibitory values (IC50) are determined using the RS1_MTS program.
30 μl of assay buffer 10 μl of substance to be tested in assay buffer with 10% of DMSO 10 μl of ATP (final concentration 1 μM cold, 0.35 μCi of ^33P-ATP) 50 μl of Met kinase/substrate mixture in assay buffer; • (10 ng of enzyme/well, 50 ng of pAGLT/well)
Assay Buffer: • 50 mM HEPES • 3 mM magnesium chloride • 3 μM sodium orthovanadate • 3 mM manganese(II) chloride • 1 mM dithiothreitol (DTT) • pH=7.5 (to be set using sodium hydroxide)
Stop Solution: • 60 mM Titriplex III (EDTA) • ^33P-ATP: Perkin-Elmer; • Met kinase: Upstate, Cat. No. 14-526, Stock 1 μg/10 μl; spec. activity 954 U/mg; • Poly-Ala-Glu-Lys-Tyr, 6:2:5:1: Sigma Cat. No. P1152
`CN1CCN(CCCOC(=O)Nc2cccc(Cn3nc(-c4cc(F)cc(F)c4)ccc3=S)c2)CC1` [Compound A1, 3-(4-methylpiperazin-1-yl)propyl{3-[6-thioxo-3-(3,5-difluorophenyl)-6H-pyridazin-1-ylmethyl]phenyl}carbamate] was tested, and the IC50 was 10 to 1000 nM. In the case of `CN1CCN(CCCOC(=O)Nc2cccc(Cn3nc(-c4cc(F)c(F)c(F)c4)ccc3=S)c2)CC1` [Compound A2, 3-(4-methylpiperazin-1-yl)propyl{3-[6-thioxo-3-(3,4,5-trifluorophenyl)-6H-pyridazin-1-ylmethyl]phenyl}carbamate formate], the IC50 is reported as 10 to 1000 nM. For `Cc1cnc(-c2cccc(Cn3nc(-c4cc(F)cc(F)c4)ccc3=S)c2)s1` [Compound A3, 6-(3,5-difluorophenyl)-2-[3-(5-methylthiazol-2-yl)-benzyl]-2H-pyridazine-3-thione], the IC50 was 10 to 1000 nM. Molecule `Cc1cnc(-c2cccc(Cn3nc(-c4cccc(Cl)c4)ccc3=S)c2)s1` [Compound A4, 6-(3-chlorophenyl)-2-[3-(5-methylthiazol-2-yl)benzyl]-2H-pyridazine-3-thione] has an IC50 of 10 to 1000 nM.
